Assay results taken from US10189875B2, “Anti-cancer peptide and use thereof” (ENSOL BIOSCIENCES INC., priority 2015, dated 2019).

Columns and labels:
[1] = test system: 4T1 mouse breast cancer cells; assay: Survival rate in the 4T1 lung metastasis model; assay type: in vivo, female BALB/c mice; conditions: FIG. 3
Description: Whether the metastasis of cancer cells was inhibited by the peptide of Example 1 was evaluated experimentally. Specifically, in order to evaluate the inhibitory effect of the peptide of Example 1 on the metastasis of cancer cells, testing was performed using a lung metastasis model with 4T1 mouse breast cancer cells (ATCC CRL-2539, USA). The peptide of Example 1 was injected into the caudal vein of the tail of female BALB/c mice (SPF, SLC/Japan). The test group was divided into three groups according to the administration concentration; low concentration [40/2 g/head], middle concentration [80/2 g/head], and high concentration 1120, ug/headl. The negative control group was treated in the same manner as the test group, with the exception that the peptide of Example 1 was not administered. […] The weight of the mouse was measured two times a week, and an autopsy was performed on the 21st day after the injection of cancer cells. The lung tissue was excised, stained with a Bouin's solution, and fixed, and then the number of metastatic tumor nodules was counted. […]
The anticancer effect of the peptide of Example 1 was evaluated experimentally. Specifically, in order to evaluate the effect of the peptide of Example 1 on surviving individuals suffering from cancer, the survival rate was measured using an animal model prepared in the same manner as in Example 3. […]

[2] = test system: 4T1 mouse breast cancer cells; assay: Lung metastasis model with 4T1 cells, count of metastatic tumor nodules; assay type: in vivo, female BALB/c mice; conditions: FIG. 2; for number of tumor nodules (lung): caudal vein, three times a week for three weeks, autopsy on 21st day, vs negative control
Description: Whether the metastasis of cancer cells was inhibited by the peptide of Example 1 was evaluated experimentally. Specifically, in order to evaluate the inhibitory effect of the peptide of Example 1 on the metastasis of cancer cells, testing was performed using a lung metastasis model with 4T1 mouse breast cancer cells (ATCC CRL-2539, USA). The peptide of Example 1 was injected into the caudal vein of the tail of female BALB/c mice (SPF, SLC/Japan). The test group was divided into three groups according to the administration concentration; low concentration [40/2 g/head], middle concentration [80/2 g/head], and high concentration 1120, ug/headl. The negative control group was treated in the same manner as the test group, with the exception that the peptide of Example 1 was not administered. On the day after first administration, 4T1 cells (1.5×10^4 cells/head) were injected into the mouse tail caudal vein. After 1 hr, the peptide of Example 1 was secondarily administered. The administration of the peptide was performed three times a week (Monday, Wednesday, and Friday) for a total of three weeks ranging from the second administration day to the final administration day. The weight of the mouse was measured two times a week, and an autopsy was performed on the 21st day after the injection of cancer cells. The lung tissue was excised, stained with a Bouin's solution, and fixed, and then the number of metastatic tumor nodules was counted. Also, a group (a normal group), treated in the same manner as the test group, was prepared as a control group, with the exception that neither the peptide of Example 1 nor 4T1 cells were added. The graph of FIG. 2 is plotted with an x-axis for each group and a y-axis for the number of tumor nodules. As such, n designates the number of individuals in each group, and P designates the significance probability.

[3] = test system: SNU-790 thyroid cancer cells; assay: Transwell invasion assay (TGF-beta1-induced invasion of cancer cells); assay type: cell-based; conditions: invasion increased by 10 ng/ml TGF-beta1; peptide at 40 and 100 [1M; 2 days culture; FIG. 1
Description: Whether the invasion of cancer cells was inhibited by the peptide of Example 1 was evaluated experimentally. Specifically, in order to evaluate the effect of the peptide of Example 1 on inhibiting the invasion of cancer cells, a Transwell invasion assay was performed. Growth factor reduced Matrigel (BD Biosciences, Franklin Lakes, N.J., USA) was diluted at 1:1 with a medium [RPMI 1640 medium (Welgene Inc., Korea)] and 70 fek thereof was added to the top chamber of the Transwell insert (Corning cat#3422, Tewksbury Mass., USA), followed by a coating process for 1 hr in a CO2 incubator at 37° C. 500 fek of a medium [RPMI 1640 medium (Welgene Inc., Korea)] containing 10% fetal bovine serum (FBS, Cellgro cat#35-015-CV, USA) was added to the bottom chamber, after which the test group was added with 10 ng/ml of TGF-betal (PromoKine, Germany). The coated top chamber was mounted to the bottom chamber, and 100 ick of RPMI 1640 medium containing 0.5% FBS with 20000 SNU-790 thyroid cancer cells (Korean Cell Line Bank) was added to the top chamber. In this way, a negative control group and two test groups were prepared. […]
The test groups, the control group, and the negative control group were cultured in a CO2 incubator for 2 days at 37° C. […] Four randomly selected regions were photographed and the number of cells in these regions was counted, averaged and graphed. […]

[4] = test system: B16-BL6 mouse melanoma cells; assay: Survival rate in animal model with B16-BL6 melanoma cells; assay type: in vivo, male C57BL/6J mice; conditions: FIG. 4
Description: The anticancer effect of the peptide of Example 1 was evaluated experimentally. Specifically, in order to evaluate the effect of the peptide of Example 1 on surviving individuals suffering from cancer, the survival rate was measured using an animal model with B16-BL6 mouse melanoma cells (Korean Cell Line Bank, Korea).
B16-BL6 cells {1×10^5 cells/head} were subcutaneously injected into 7-week-old male C57BL/6J mice (Orientbio Inc., Korea). After one week, the peptide of Example 1 was intraperitoneally administered. The test group was divided into three groups according to the administration concentration; low concentration {40, ttg/head}, middle concentration {80, ttg/head}, and high concentration {120, ttg/head}. The negative control group was treated in the same manner as the test group, with the exception that the peptide of Example 1 was not administered. The administration was repeated two times a week for two weeks from the first administration day and then once a week for an additional four weeks, and the peptide was administered a total of eight times. To measure the survival rate, the survival rate for each group was observed and recorded. In the graph of FIG. 4, showing the survival rate, the x-axis represents the number of days since injection of the cancer cells, and the y-axis represents the survival rate (%). […]

[5] = low, middle and high concentration groups compared

## QLHLD [Example 1]
[1]; [5]
  survival rate, comparison among dose groups: highest in the test group in which the peptide was administered at the middle concentration
[1]; middle and high concentrations, caudal vein, vs negative control
  survival rate: some individuals survived even after the death of the negative control group
[2]; high concentration (120 ug/head)
  number of tumor nodules (lung): significantly (P<0.001) reduced
[2]; [5]
  inhibitory effect of cancer metastasis, comparison among dose groups: highest in the test group in which the peptide was administered at the middle concentration
[2]; middle concentration [80/2 g/head]
  number of tumor nodules (lung): significantly (P<0.001) reduced
[3]
  invasion of cancer cells (number of invading cells): inhibited in a concentration-dependent manner
[4]; [5]
  survival rate, comparison among dose groups: highest in the test group in which the peptide was administered at the middle concentration
[4]; test groups (low 40, middle 80, high 120 ttg/head), intraperitoneal, eight administrations, vs negative control
  survival rate: some individuals survived even after the death of the negative control group
